Marks after values point to notes of the source that are not given here.
Legend:
human melanoma 1205Lu = experiment: Growth of human melanoma 1205Lu in RAG-1 mice; format: in vivo; details: 10, 20, 40 mg/kg/d; started when tumors about 0.1 ml
From the text: As apparent from FIG. 5, melanoma 1205Lu develops aggressively in RAG-1 mice after implantation.

[1] = test system: chorioallantoic membrane capillaries; experiment: Chorioallantoic membrane (CAM) model of capillary growth; format: in vivo, chick; details: for Percentage positive, Assay 1 / Percentage positive, Assay 2 / Percentage positive, Mean: 3-day embryo
From the text: The growing capillaries within the chorioallantoic membrane model (CAM model) have been used as a system in which to evaluate the effect of agents on their potential to inhibit new vessel growth. Neovascularization occurs most aggressively over the first week of embryonic development. Thereafter capillary growth is characterized by principally “elongation” rather than “de novo” formation. In the standard assay, agents are applied locally to a region of the embryo over which neovascularization will occur. Agents are assessed by their ability to inhibit this process, as evaluated by visual examination about 7 days after application. […] The assay utilized is described in detail in Auerbach et al., Pharm. Ther. 51, 1991, 1-11.

[2] = test system: bovine pulmonary endothelial cells; experiment: Cell growth with membrane-active agents (absorbance at 600 nm); format: cell-based; details: 1 μg/ml
Procedure: (§1) Cell growth was measured by absorbance at 600 nm.

[3] = test system: human epithelial cell line MCF 10A; experiment: as above; format: cell-based; details: 10 μg/ml
Procedure: as §1

[4] = test system: human foreskin fibroblasts; experiment: as above; format: cell-based; details: 10 μg/ml
Procedure: as §1

Murine B16 melanoma = experiment: In vitro cell growth inhibition (assay of Baker et al.); format: cell-based; details: except at very high concentrations
From the text: (§2) As set forth in Table 7 below, all malignant tumors evaluated in tissue culture, endothelial cells and vascular smooth muscle cells were sensitive to inhibition. Thus, compound 1436 has application in the control of growth factor dependent proliferation of many types of tissue.

Mouse IV PK study = details: in vivo, i.v., HPLC, read-out: Half-life of clearance from the blood stream
Procedure: To assess clearance, a mouse IV PK study was performed for compound 319 and squalamine. The compound was administered i.v. and blood samples were taken every 10 minutes. The concentration of the administered steroid was determined by HPLC analysis.

[5] = test system: heart of a juvenile Xenopus laevis frog; experiment: Isolated frog heart, persistence of beating ex vivo; details: 10 μg/ml; Krebs-Ringer buffer with adrenaline 50 μg/ml; without compound about one hour
Procedure: To determine if compound 1436 has such utility, the following experiment was performed. The heart of a juvenile Xenopus laevis frog was dissected from the living animal. The heart was placed into a Petri dish containing Krebs-Ringer buffer with adrenaline 50 μg/ml, and examined with the naked eye. At room temperature, the heart continued beating in a coordinated fashion (atrial beat followed by ventricular beat) for about one hour. In the presence of 10 μg/ml of compound 1436, spontaneous beating persisted up to 24 hours.

[6] = test system: Human coronary artery smooth muscle cells; experiment: In vitro growth of coronary artery smooth muscle; format: cell-based
From the text: as §2
Aminosterols of the invention may also have utility in inhibiting the growth factor mediated proliferation of smooth muscle within the artery. Following coronary angioplasty, reocclusion commonly occurs, secondary to reparative proliferation of the vascular smooth muscle within the wall of the surgically manipulated blood vessel. This process generally takes place over the course of 7-10 days. To evaluate whether an agent could prevent the growth factor mediated proliferation of smooth muscle within the artery, compound 1436 was evaluated in vitro for its effect on the proliferation of human coronary artery smooth muscle. Results for compound 1436 are shown in FIG. 13, and those for squalamine are shown in FIG. 14, with FIG. 15 being a composite logarithmic plot.

[7] = test system: PHA-stimulated human lymphocytes; experiment: Inhibition of mitogen-stimulated growth of human T-cells; format: cell-based; details: Lymphocyte, 10 μg/ml, read-out: Inhibition of blast transformation
[8] = Arterial pressure in catheterized rat; format: in vivo
Procedure: A 200-g rat was catheterized in the right carotid artery, and the compound was introduced over a ten-second period to a total dosage of 5 mg/kg. Within 30 seconds, the mean arterial pressure had fallen from about 100 mm Hg to about 70 mm Hg, with a marked reduction in pulse pressure from about 40 mm to about 10 mm. […] If cardiac output was basically unaffected, reduction in blood pressure would have resulted principally from a reduction in system resistance.
At that time, 40 μg of noradrenaline was introduced.

[9] = test system: PHA-stimulated lymphocytes; experiment: Viability of lymphocytes in the HIV replication test; format: cell-based
Procedure: (§3) PHA-stimulated lymphocytes were inoculated with a clinical isolate of HIV at a multiplicity of infection of […]. Fresh lymphocytes were obtained and stimulated with PHA and IL-2. After 3 days, 1000 TCID of virus-(HIV clinical isolate) were applied for 1 hour and there was a M.O.I. of 1:10. The cells were washed and in a dose response fashion, and drug in media was applied. After 3 days, the supernatant was exchanged with ½ volume of fresh media and ½ the volume of fresh drug. After 7 days, detergent was added, and HIV P-24 Antigen was determined by Elisa. Viability of the lymphocytes was evaluated along with appearance of the viral gene product p24.

[10] = Growth and weight gain in normal growing mice; format: in vivo; details: C57B mice
Procedure: Animals were dosed QTD (i.p.) starting on Day 1. […] Animals receiving 5 mg/kg QTD experienced about a 50% reduction in growth, compared to untreated controls, while animals receiving 1 mg/kg QTD were affected by about 10%. […] They appeared very much like hypophysectamized animals might appear.

HIV clinical isolate = experiment: HIV replication in PHA-stimulated lymphocytes (P-24 antigen Elisa); format: cell-based; parameters: P-24 Elisa: unit not given here; details: for P-24 Elisa: 7 days
Procedure: as §3

[11] = 20 μg applied, some vascular irritation noted
[12] = 40 μg applied, some vascular irritation noted

With `CC(CC[C@@H](OS(=O)(=O)O)C(C)C)[C@H]1CCC2C3C(CC[C@@]21C)[C@@]1(C)CC[C@H](NCCCNCCCCN)C[C@@H]1C[C@H]3O` (some centres unmarked) [squalamine] the “Suppression of tumor growth” value (human melanoma 1205Lu) was “suppress the growth of melanoma 1205Lu in RAG-1 mice in a dose-dependent fashion”, the “Percentage positive, Assay 1” value ([1]; 0.65 μg applied) was 28% and the “Percentage positive, Assay 1” value ([1]; 1.25 μg applied) was 18%. For the same compound, the “Percentage positive, Assay 2” value ([1]; 1.25 μg applied) was 18%, the “Percentage positive, Mean” value ([1]; 1.25 μg applied) was 18% and the “Percentage positive, Assay 1” value ([1]; 2.5 μg applied) was 35%. The “Percentage positive, Assay 2” value ([1]; 2.5 μg applied) was 18%, the “Percentage positive, Mean” value ([1]; 2.5 μg applied) was 27% and the “Percentage positive, Assay 1” value ([1]; 5.0 μg applied) was 91%. The “Percentage positive, Assay 2” value ([1]; 5.0 μg applied) was 57%, the “Percentage positive, Mean” value ([1]; 5.0 μg applied) was 74% and the “Percentage positive, Mean” value ([1]; 20 μg applied) was 55%. For the same compound, the “Percentage positive, Assay 1” value [1, 11] was 52* %, the “Percentage positive, Assay 2” value [1, 11] was 58* % and the “Percentage positive, Mean” value ([1]; 40 μg applied) was 32%. The “Percentage positive, Assay 1” value [1, 12] was 50* %, the “Percentage positive, Assay 2” value [1, 12] was 13* % and the Percentage positive ([1]; 13-day embryo, 5.0 μg applied) was 0/26. For the same compound, the “Effect on cell growth” value [2] was “inhibited the growth”, the “Effect on cell growth” value [3] was “no effect on the growth” and the “Effect on cell growth” value [4] was “no effect on the growth”. The “Cytostatic activity against B16 in culture” value (Murine B16 melanoma) was “minimal cytostatic activity” and the half-life (Mouse IV PK study) was roughly 35 min.

With `CC(CC[C@@H](OS(=O)(=O)O)C(C)C)[C@H]1CCC2C3C(CC[C@@]21C)[C@@]1(C)CC[C@H](NCCCNCCCCNCCCN)C[C@@H]1C[C@H]3O` (some centres unmarked) [Compound 1436] the “Persistence of spontaneous beating” value [5] was “up to 24 hours”, the “Concentration effective in suppressing growth” value [6] was 10 to 12 µg/mL and the “Concentration maintaining cells quiescent without loss of viability” value [6] was “about 11 μg/ml”. For the same compound, the inhibition at 10 µg/mL [7] was greater than 75%, the Heart rate ([8]; 5 mg/kg) was “no significant increase in heart rate” and the “Time to fall of arterial pressure” value ([8]; 5 mg/kg) was no more than 30 s. For the same compound, the “Mean arterial pressure after dosing” value ([8]; 5 mg/kg over ten seconds, fallen from about 100 mm Hg) was “about 70 mm Hg”, the “Pulse pressure after dosing” value ([8]; 5 mg/kg, reduced from about 40 mm) was “about 10 mm” and the Lymphocyte viability retained ([9]; 10 μg/ml) was 95%. For the same compound, the “% Viability” value ([9]; Conc. 0.5 μM) was 91%, the “% Viability” value ([9]; Conc. 10 μM) was 95% and the “% Viability” value ([9]; Conc. 20 μM) was 90.1%. The “Reduction in growth compared to untreated controls” value ([10]; 1 mg/kg QTD i.p.) was “about 10%”, the “Reduction in growth compared to untreated controls” value ([10]; 5 mg/kg QTD i.p.) was roughly 50% and the “Suppression of growth of mice” value ([10]; 10 mg/kg QTD i.p., after 6 doses, about 1 month) was “growth was almost completely inhibited”. The “P-24 Elisa” value (HIV clinical isolate; Conc. 0.5 μM) was 40561, the “P-24 Elisa” value (HIV clinical isolate; Conc. 1 μM) was 7464 and the “P-24 Elisa” value (HIV clinical isolate; Conc. 5 μM) was 3426. For the same compound, the “P-24 Elisa” value (HIV clinical isolate; Conc. 10 μM) was 421, the “P-24 Elisa” value (HIV clinical isolate; Conc. 20 μM) was 9 and the inhibition at 10 µg/mL (HIV clinical isolate; Human immunodeficiency virus 1, Lymphocyte, 10 μg/ml, read-out: Inhibition of antigen synthesis) was 97%.

Source: patent US6962909B2, “Treatment of neovascularization disorders with squalimine” (Genaera Corporation, priority 1995, dated 2005)
